Source: publication PMC6960228, “Ethoxysanguinarine, a Novel Direct Activator of AMP-Activated Protein Kinase, Induces Autophagy and Exhibits Therapeutic Potential in Breast Cancer Cells” (Frontiers in Pharmacology, 2020)
Where two headings read alike, the source gives them in different places.

What was measured:
Pharmacokinetic study = format: in vivo, Sprague-Dawley rats; conditions: rat; for MRT last: read-out: MRT0-t
Protocol: Eleven Sprague–Dawley rats (220–250 g, female) were bought from Hunan SJA Laboratory Animal Co., Ltd. (Changsha, China), and maintained and monitored in a specific pathogen-free environment. They were fasted overnight before the experiments. All rat studies were conducted according to protocols approved by the Animal Ethics Committee of Hubei University of Medicine. Six rats were administered with Eth (2 mg/kg) by intravenous injection, and the other five rats were inoculated with Eth (15 mg/kg) by intragastric injection. Blood samples of […] were collected from the orbit at the time points indicated. The plasma concentrations of Eth were determined by […] (Figure S1). The pharmacokinetic parameters were obtained from the pharmacokinetic software DAS 2.0 (Drug and Statistics Version 2.0).
We then tested the pharmacokinetic features of Eth in Sprague-Dawley rats. To do this, six rats were administered Eth (2 mg/kg) by intravenous (i.v.) injection, and another five rats were inoculated with Eth (15 mg/kg) by intragastric (i.g.) injection. the mean plasma concentration-time profiles are shown in Figures 6J, K, and the main pharmacokinetic parameters are summarized in Table 3. […] Therefore, Eth could be a potential therapeutic agent against BC.

T47D = experiment: MTT cytotoxicity assay; format: cell-based; conditions: Homo sapiens, 24 h, means ± SD of quadruplicate determinations
Protocol: Cells were seeded into 96-well plate and pre-cultured for 24 h, then treated with Eth for 24. Cell cytotoxicity was determined by MTT assay. The absorbance was measured at 490 nm by automated microplated reader (BioTek Instruments, Inc., Winooski, VT, USA), and the cell death rate was calculated as followed: inhibition rate (%) = (average A490 of the control group − average A490 of the experimental group)/(average A490 of the control group − average A490 of the blank group) × 100%. Cell viability was estimated by trypan blue dye exclusion.

AMPKα = experiment: Streptavidin agarose affinity assay; format: binding, human; conditions: Bio-Eth (4 μM) with or without Eth (12 μM), 3 h
Protocol: Cell pellets were lysed and the supernatant collection was incubated with indicated antibodies overnight at 4°C, after which protein A/G Plus beads (Santa Cruz Biotechnology) were added and incubated at 4°C for 4 h. The beads were washed 4 times in NETN buffer (1% NP-40, 2 mM EDTA, 40 mM Tris-HCl, 137 mM NaCl, pH 7.4), resuspended in SDS-PAGE loading buffer and boiled for 5 min. For streptavidin agarose affinity assay, cells upon Bio-Eth were lysed; the lysates were incubated with streptavidin agarose, washed and boiled in SDS-PAGE loading buffer. […] Western blot assays were performed.
Figure 4 Eth is a direct activator of AMPK. (A): MCF-7, MDA-MB-231, or MDA-MB-436 cells were treated with increasing concentrations of Eth for 24 h, and AMPK activity assay was performed. (B): The binding mode of Eth docked into AMPK. (C): The binding mode of Eth docked into AMPK. α subunit is green, β subunit is cyan, γ subunit is magenta and Eth is gold. (D): Details of the binding site of Eth in the ADaM site of AMPK. The main residues involved in drug interactions are shown as labeled green sticks. α subunit is green, β subunit is cyan. The pSER-108 was shown in stick and colored by gold. (E) The interaction pattern of Eth with the residues. […] (H): Viability of MCF-7, MDA-MB-231 or MDA-MB-436 cells exposed to Biotin-Eth as determined by MTT assay. […]

AMPK = AMPK activity assay (CycLex kit) in treated cells; format: cell-based, human; conditions: MCF-7, MDA-MB-231, and MDA-MB-436 cells treated with Eth
Protocol: AMPK kinase activity was assay was performed by AMPK kinase activity kit which was purchased from CycLex Co., Ltd. (Cat#CY-1182). Absorbance was measured at 450 nm.
Next we determined whether Eth modulates the activity of the AMPK kinase. For this purpose, MCF-7, MDA-MB-231, and MDA-MB-436 cells were treated with Eth and incubated for different time periods (1, 6, 12, and 24 h).
Figure 4 Eth is a direct activator of AMPK. (A): MCF-7, MDA-MB-231, or MDA-MB-436 cells were treated with increasing concentrations of Eth for 24 h, and AMPK activity assay was performed. (B): The binding mode of Eth docked into AMPK. (C): The binding mode of Eth docked into AMPK. α subunit is green, β subunit is cyan, γ subunit is magenta and Eth is gold. (D): Details of the binding site of Eth in the ADaM site of AMPK. The main residues involved in drug interactions are shown as labeled green sticks. α subunit is green, β subunit is cyan. The pSER-108 was shown in stick and colored by gold. (E) The interaction pattern of Eth with the residues. (F): The 2D representation of the AMPK crystal structure in complex with Eth. (G): Chemical structure of Eth intermediate and Biotin-labeled Eth. (H): Viability of MCF-7, MDA-MB-231 or MDA-MB-436 cells exposed to Biotin-Eth as determined by MTT assay. […]

[1] = female, Sprague-Dawley, plasma, iv, i.v. (2 mg/kg)
[2] = female, Sprague-Dawley, plasma, po, i.g. (15 mg/kg)

CCOC1c2c(ccc3c2OCO3)-c2ccc3cc4c(cc3c2N1C)OCO4 (centres unmarked) [Eth, Ethoxysanguinarine]
AUC(0-t) (Pharmacokinetic study; [1]): 3640 ± 1560 ng·h/mL
Cmax (Pharmacokinetic study; [1]): 3580 ± 756 ng/mL
half-life (Pharmacokinetic study; [1]): 3.54 ± 1.79 h
clearance (Pharmacokinetic study; female, Sprague-Dawley, plasma, iv, i.v. (2 mg/kg), read-out: CLz (converted)): 9.32 mL/min/kg
MRT last (Pharmacokinetic study; [1]): 2.18 ± 0.462 h
AUC(0-t) (Pharmacokinetic study; [2]): 3390 ± 592 ng·h/mL
Cmax (Pharmacokinetic study; [2]): 498 ± 110 ng/mL
half-life (Pharmacokinetic study; [2]): 4.05 ± 1.58 h
MRT last (Pharmacokinetic study; [2]): 7.03 ± 1.01 h
Tmax (Pharmacokinetic study; female, Sprague-Dawley, plasma, iv, 2 mg/kg, i.v. (2 mg/kg), read-out: Tmax): 0.083 h
Tmax (Pharmacokinetic study; female, Sprague-Dawley, plasma, iv, 2 mg/kg, i.v. (2 mg/kg), read-out: time of peak plasma concentration (converted)): 0.033 h
Tmax (Pharmacokinetic study; female, Sprague-Dawley, plasma, po, 15 mg/kg, i.g. (15 mg/kg), read-out: Tmax): 2 h
BA (Pharmacokinetic study; i.g. (15 mg/kg)): 12.43%
CLz (Pharmacokinetic study; i.g. (15 mg/kg)): 73.63 ± 14.9 mL/min/kg
IC50 (T47D): 9.15 ± 1.83 µM
binding of Bio-Eth to AMPKα in presence of unlabeled Eth (AMPKα): significantly attenuated by unlabeled Eth
AMPK activity (AMPK): robust increase in AMPK activity
